Data as given in patent publication US12449422B2, “Method and composition matter for immunoproteasome-mediated delivery into living cells” (Purdue Research Foundation, priority 2019, dated 2025).
No end group written: not given here.

Key:
A549 cells [1] = test: Cell Titer-Glo luminescent cell viability assay; assay type: cell-based
Protocol: A549 cells were treated with 5 ng/mL IFN-γ for 4 days then split into a black 96-well plate at a density of 5,000 cells/well along with non-IFN-γ treated cells. Cells were allowed to adhere overnight before performing assays. The media was removed and fresh media (50 μL) was added to each well. Each probe was added to each well at the corresponding concentration and the plate was returned to the incubator for the given amount of time. To remove any signal due to FBS in the media, the media was removed and cells were washed with PBS (3 times). After the final wash, PBS (50 μL) was added to each well. The plate was incubated at 37° C. in the plate reader, monitoring the change in fluorescence (Ex—485(20) nm, Em—535(20) nm for Rh-probes; gain=90). Samples were run in five replicates and any outliers (outside the range of average±standard deviation) were removed (no more than two replicates per sample were removed). […] To ensure that observed differences in fluorescence were not due to a difference in total cells or cell viability, a Cell Titer-Glo® luminescent cell viability assay (Promega) was performed in a separate white 96 well plate using the same conditions per the manufacturer's protocol. Luminescence was recorded using a BioTek Synergy™ Neo2 Multimode Microplate Reader. […]

iCP [2] = target: T1, iCP (Homo sapiens, UniProt P28062); test: Hit validation: LC/MS of OVA released from hit peptides by iCP; assay type: biochemical; conditions: for iCP % Change OVA: 5.2 μM peptide, 4 nM iCP, 6 hours, 37° C., vs EIC of control peptide Ala-Ala-Ala-Phe-OVA; for Selectivity: iCP over sCP
T1 construct: purchased Boston Biochem
Protocol: (§1) Validation assays were performed under similar conditions as the screen. Briefly, 5 μM of each hit peptide was incubated at 37° C. with 4 nM iCP for six hours in triplicate, then analyzed by LC/MS. All peptides were also analyzed under identical conditions using 4 nM sCP. This was done to confirm that our library design yielded the desired selectivity and not simply sequences that could be efficiently cleaved by either isoform. The mass of OVA was extracted and integrated for each sample, averaging the triplicates. […] Of the nine total hits, six validated successfully. Additionally, all validated hits had at least 1.4-fold selectivity for the iCP (FIG. 4C and FIG. 5). We chose to move forward with the sequence Ala-Thr-Met-Trp, as this not only had highly efficient cleavage by the iCP but also was close to 5-fold selective for the iCP compared to the sCP.
(§2) For validation, purified hit sequences (46 μL final concentration 5.2 μM) in 50 mM tris buffer, pH 7.6 were added to nine wells of a 96 well plate. To each triplicate, 4 μL of tris buffer, 50 nM iCP (final concentration 4 nM) or 50 nM sCP (final concentration 4 nM) was added. This was sealed and allowed to incubate for 6 hours at 37° C. HPLC-grade acetonitrile (50 μL) was added to each sample and the samples were then dried under vacuum. Dried samples were resuspended in 100 μL 50/50 water/acetonitrile with 0.1% formic acid. Each sample was then analyzed by LC/MS with an injection volume of 90 μL. The mass of OVA (887.0-887.9) was extracted. The peak at the same time point as the standard was then integrated and averaged over the triplicate for each sample. Percent change was considered for each triplicate in comparison to the EIC of the control peptide sequence (Ala-Ala-Ala-Phe-OVA). Raw data for integrated OVA peaks can be seen in FIG. 5. Each bar represents an average of triplicates with error bars given as the standard deviation.

sCP [3] = target: T2, sCP (Homo sapiens, UniProt P28074); test: Hit validation: LC/MS of OVA released from hit peptides by sCP; assay type: biochemical; conditions: 5.2 μM peptide, 4 nM sCP, 6 hours, 37° C.; vs EIC of control peptide Ala-Ala-Ala-Phe-OVA
T2 construct: purchased Boston Biochem
Protocol: as §1, §2

IFN-γ treated A549 cells = test: Confocal imaging with TBZ1; assay type: cell-based; conditions: 31 μM TBZ1, one hour, vs DMSO
Protocol: As an additional way to visualize the cells treated with TBZ1, we analyzed IFN-γ cells using confocal microscopy. Following a similar procedure as the plate reader assay, IFN-γ treated cells were plated on glass coverslip chambers coated with poly-D-lysine and were dosed with TBZ1 (31 μM) or DMSO for one hour. After washing, the cells were returned to the incubator for 30 min before staining with Super Bright 436 HLA-A, B, C antibody to serve as a membrane marker.
After four days of treatment with IFN-γ, A549 cells were plated into 8-well chambered coverglass plates that had been coated with poly-d-lysine (20,000 cells/well). The cells were allowed to adhere overnight then washed once with PBS. Fresh media including 31 μM TBZ1 was added to wells in triplicate and incubated for one hour. After incubation, the cells were washed with PBS (3 times) then kept in 200 μL modified Krebs-Ringer buffer (134 mM NaCl, 3.5 mM KCl, 1.2 mM K2HPO4·3H2O, 0.5 mM MgSO4·7H2O, 1.5 mM CaCl2·2H2O, 5 mM NaHCO3 and 10 mM HEPES, pH 7.4). The samples were returned to the incubator. After 30 min, Super Bright 436 HLA-ABC monoclonal antibody (ThermoFisher #62-9983-42) was added to each well (1 μL/well, 0.1 μg) and the samples were returned to the incubator for an additional 30 min. The samples were again washed with PBS and suspended in modified Krebs-Ringer buffer (200 μL) for imaging. […]

A549 cells [4] = test: Flow cytometry with TBZ1; assay type: cell-based; conditions: 31 μM TBZ1, preliminary, single replicate
Protocol: A549 cells untreated and treated with IFN-γ were each plated into 4 wells of a 12-well plate at 300,000 cells/well. The cells were allowed to adhere overnight. To each well was added fresh media (500 μL) with either DMSO alone or TBZ1 (final concentration=31 μM). The plate was returned to the incubator for an hour. The cells were then washed with PBS (3 times). The plate was incubated for an additional hour in PBS. The cells were removed from each well using trypsin-EDTA solution. After centrifuging and removing the media, the cells were resuspended in PBS. Samples were mixed at a ratio of 1:1 -IFN-γ to +IFN-γ cells then all three samples were analyzed by flow cytometry using a Guava EasyCyte instrument with Guava CytoSoft™ software. Samples were excited with a 488 nm laser and fluorescence intensity was recorded from the 525 nm filter cube. Image analysis was performed using FlowJo v10. Data shown in FIG. 17 is of a single replicate.

A549 cells [5] = test: Cellular assay with TBZ1, plate-reader fluorescence; assay type: cell-based; conditions: 31 μM TBZ1, 15 and 60 min
Protocol: To determine the selectivity of TBZ1 in cells, both untreated cells and cells treated with IFN-γ were plated at the same cell density into a 96-well plate for fluorescence readouts. After allowing sufficient time for the cells to adhere to the wells, TBZ1 was added and allowed to incubate for various time points. Following the initial incubation, wells were washed with PBS to remove any probe that had not been taken up by the cells and the plate was incubated for an additional hour before the fluorescence was recorded. […] We initially intended to use TBZ4 as a way to confirm that the addition of a peptoid improved cell penetration and protease stability of TBZ1. […]
A549 cells were treated with 5 ng/mL IFN-γ for 4 days then split into a black 96-well plate at a density of 5,000 cells/well along with non-IFN-γ treated cells. […] The plate was incubated at 37° C. in the plate reader, monitoring the change in fluorescence (Ex—485(20) nm, Em—535(20) nm for Rh-probes; gain=90). […] To ensure that observed differences in fluorescence were not due to a difference in total cells or cell viability, a Cell Titer-Glo® luminescent cell viability assay (Promega) was performed in a separate white 96 well plate using the same conditions per the manufacturer's protocol. Luminescence was recorded using a BioTek Synergy™ Neo2 Multimode Microplate Reader. […]

iCP [6] = target: T1, iCP; test: LC/MS analysis of TBZ1 cleavage with purified iCP; assay type: biochemical; conditions: 31 μM, 9 nM iCP, 55 min, 37° C.
From the text: (§3) We first analyzed TBZ1 in the same conditions as the biochemical assay without any iCP to confirm there was not any non-specific degradation occurring during the LC/MS run. In this, we only observed the two isomers of our probe. After treatment with the iCP, we observed two new peaks in the TIC spectrum. These corresponded to the expected Rh-peptoid and peptide fragments. The full mass of TBZ1 was extracted from each triplicate and compared between iCP and sCP samples. […] When this analysis was performed using sCP, we observed that 77% remained uncleaved.
(§4) In the same way as the biochemical assays (FIG. 11), TBZ1 (31 μM) was incubated at 37° C. with or without purified proteasome (9 nM) in 50 mM tris HCl buffer (pH 7.6) for 55 min in triplicate. After incubation, samples were quenched by adding 50 μL of HPLC-grade acetonitrile. The samples were dried under vacuum then resuspended in 50/50 water/acetonitrile with 0.1% formic acid (100 μL). Samples (50 μL) were analyzed by LC/MS (Agilent 1260 Infinity II with a Zorbax Eclipse Plus C18 column, 2.1×50 mm, 1.8-micron attached to an Agilent 6129 quadrupole mass spectrometer). […] Percent TBZ1 remaining in treated samples was determined by comparing the averages of untreated vs. treated samples.

sCP [7] = target: T2, sCP; test: LC/MS analysis of TBZ1 cleavage with purified sCP; assay type: biochemical; conditions: 31 μM, 9 nM sCP, 55 min, 37° C.
From the text: as §3, §4

iCP [8] = target: T1, iCP; test: Biochemical assay with fluorogenic substrate probes and purified proteasome; conditions: 31 μM probe, 9 nM proteasome, 37° C.
Protocol: Initially, we treated various concentrations of TBZ1 from 0-250 μM with both the iCP and sCP (FIG. 11). All concentrations were incubated at 37° C. with 9 nM of the respective proteasomes and the increase in fluorescence was monitored for 60 min at 1 min intervals. We found 31 μM of TBZ1 to give a favorable profile, maintaining about a 3:1 selectivity compared to the sCP (FIG. 6).
The remaining probes were studied at 31 μM and monitored for an increase in fluorescence over 30 minutes. […] Finally, we also sought to compare TBZ1 to the commercially available, iCP-selective substrate probe Ac-ANW-AMC.
Each probe was dissolved in DMSO at a proper stock concentration such that the final concentration of DMSO in the sample is 2%. For TBZ1, a two-fold serial dilution was performed to determine the optimal concentration for biochemical assays. Each stock was then diluted in 50 mM tris buffer, pH 7.6 (1 μL stock per 40 μL buffer) and added to a black 96 well plate in triplicate (41 μL per well). Stocks ([…] in 50 mM tris buffer, pH 7.6) of either iCP or sCP was added to each well (9 μL/well, final concentration=9 nM). The change in fluorescence (Ex—485(20) nm, Em—535(20) nm; gain=50) was monitored over time on a Tecan Infinite 200® Pro Microplate Reader. Data was plotted as the average of triplicate samples using GraphPad Prism 7 and can be found in FIG. 11. […]

COc1ccc(C[C@H](NC(=O)[C@H](C)NC(=O)CN2CCOCC2)C(=O)N[C@@H](Cc2ccccc2)C(=O)C2(C)CO2)cc1 (stereo in doubt) [ONX-0914]
cell death with ONX-0914 (Cell Titer-Glo) (A549 cells [1]; ONX-0914 20 μM, IFN-γ treated A549 cells): not due to cell death

Ala-Ala-Ala-Phe-OVA [reference compound]
iCP % Change OVA (iCP [2]): 0% | Selectivity (iCP [2]; OVA released): 1.3 | sCP % Change OVA (sCP [3]): −25%

His-Gly-Gly
iCP % Change OVA (iCP [2]): −82% | Selectivity (iCP [2]; OVA released): 0.8 | sCP % Change OVA (sCP [3]): −78%

Thr-Met-Trp: hit peptide: N-terminal Ala, P3-P2-P1 Thr-Met-Trp, attached to modified OVA (ATMW; also: attached to modified OVA)
iCP % Change OVA (iCP [2]): +1502% | selectivity for the iCP compared to the sCP (iCP [2]; hit validation, OVA released): ~5 fold | Selectivity (iCP [2]; OVA released): 4.8 | sCP % Change OVA (sCP [3]): +232%

COCCCN(CC(=O)N(CCCN(C)C)CC(N)=O)C(=O)CN(CCCN(C)C)C(=O)CNC(=O)CCC(=O)Nc1ccc2c(c1)Oc1cc(NC(=O)[C@H](Cc3c[nH]c4ccccc34)NC(=O)[C@H](CCSC)NC(=O)[C@@H](NC(=O)[C@H](C)N)C(C)O)ccc1C21OC(=O)c2ccccc21 (stereo partly shown) [TBZ1]
intracellular staining by confocal microscopy (IFN-γ treated A549 cells): increased staining due to probe cleavage within the cell | separation of cell populations by flow cytometry (A549 cells [4]): cell populations can be separated based on increasing amounts of iCP-expressing cells | fluorescence signal in IFN-γ treated vs regular A549 cells (A549 cells [5]): significantly increased signal for IFN-γ treated cells | uncleaved TBZ1 remaining in iCP samples (iCP [6]): 31% | cell viability (Cell Titer-Glo) after TBZ1 treatment (A549 cells [1]; untreated vs IFN-γ treated A549 cells): no significant difference | TBZ1 remaining uncleaved with sCP (sCP [7]): 77%

TBZ4 (ATMW; also: rhodamine probe)
change in fluorescence / cleavage by purified proteasome (iCP [8]): not as efficiently cleaved at TBZ1

TBZ2 (AEPY; also: ['rhodamine probe conjugate with peptoid group'])
change in fluorescence / cleavage by purified proteasome (iCP [8]): very minimal fluorescence
